Results published in ChEMBL document CHEMBL1201862, “PubChem BioAssay data set” (2004).
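Where inhibition never reached the appropriate level, the endpoint shown equals the highest concentration tested. Otherwise, values were interpolated linearly from a five-concentration, 48-hour dose response in 96-well plates. GI50 marks 50% less growth.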 Activity calls are given as the source filed them. Rule as the data show it: active = GI50 up to about 1.1 µM and inactive = higher.

How the values were obtained:
Test in all cases: NCI-60 cell line screen, 48 h
[1] = system: ACHN
[2] = system: CCRF-CEM
[3] = system: COLO 205
[4] = system: DU-145
[5] = system: EKVX
[6] = system: HCT-116
[7] = system: HL-60
[8] = system: MCF7
[9] = system: MDA-MB-231
[10] = system: Malme-3M
[11] = system: NCI-H460
[12] = system: NCI-H522
[13] = system: OVCAR-4
[14] = system: OVCAR-5
[15] = system: SW-620
[16] = system: T47D
[17] = system: TK-10
[18] = system: UACC-62
[19] = system: UO-31

Measured: GI50

CN(CCCNC(=O)c1c2ccc3ccccc3c2nn1C)CCCNC(=O)c1c2ccc3ccccc3c2nn1C
inactive: [1] 11.5 µM | [2] 8.18 µM | [3] 1.81 µM | [4] 17.5 µM | [5] 9.14 µM | [6] 4.76 µM | [7] 10.4 µM | [8] 3.94 µM | [9] 10.5 µM | [10] 3.03 µM | [11] 4.52 µM | [12] 7.35 µM | [13] 11.7 µM | [14] 11.5 µM | [15] 7.74 µM | [16] 7.62 µM | [17] 2.67 µM | [18] 1.87 µM | [19] 6.47 µM

Cc1ccc(SCC(CSCCO)OCn2cnc3c2N=C(N)NC32OCCO2)cc1 (configuration not stated)
inactive: [1] > 100 µM | [2] > 100 µM | [4] > 100 µM | [5] 83 µM | [6] > 100 µM | [7] > 100 µM | [8] > 100 µM | [9] > 100 µM | [10] > 100 µM | [11] > 100 µM | [12] > 100 µM | [13] > 100 µM | [14] > 100 µM | [15] > 100 µM | [16] > 100 µM | [17] > 100 µM | [19] > 100 µM

CC(=O)Oc1ccc2c(c1)c1c(=O)oc(C)nc1n2Cc1ccccc1
inactive: [1] 28.7 µM | [2] > 64.3 µM | [3] 24.6 µM | [4] > 55.7 µM | [5] > 53.5 µM | [6] 40.5 µM | [7] 57.7 µM | [8] 47.8 µM | [9] 33.7 µM | [10] 73.6 µM | [11] > 65.2 µM | [12] 12 µM | [13] > 75.7 µM | [14] > 84.5 µM | [15] 57.9 µM | [16] 33.5 µM | [17] 35.2 µM | [18] 16.3 µM | [19] 2.79 µM

COc1ccc(-n2c(C)nc3ccc(/N=C/c4ccccc4)cc3c2=O)cc1
inactive: [1] > 100 µM | [3] > 100 µM | [4] > 100 µM | [5] > 100 µM | [6] > 100 µM | [7] > 100 µM | [8] > 100 µM | [9] > 100 µM | [10] > 100 µM | [11] > 100 µM | [12] > 100 µM | [13] > 100 µM | [14] > 100 µM | [15] > 100 µM | [16] > 100 µM | [17] > 100 µM | [18] > 100 µM | [19] > 100 µM

Nc1cccc(S(=O)(=O)Nc2nnc(S(N)(=O)=O)s2)c1
inactive: [1] > 100 µM | [3] > 100 µM | [4] > 100 µM | [5] > 100 µM | [6] > 100 µM | [7] > 100 µM | [8] > 100 µM | [9] > 100 µM | [10] > 100 µM | [11] > 100 µM | [12] > 100 µM | [13] > 100 µM | [14] > 100 µM | [15] > 100 µM | [16] > 100 µM | [17] > 100 µM | [18] > 100 µM | [19] > 100 µM

COc1cc2c(cc1OC)C1c3ccccc3CCCN1CC2 (configuration not stated)
inactive: [1] > 100 µM | [2] > 100 µM | [3] > 100 µM | [4] > 100 µM | [5] > 100 µM | [6] 36.4 µM | [7] 41.3 µM | [8] > 100 µM | [9] > 100 µM | [10] > 100 µM | [11] > 10 µM | [12] > 100 µM | [13] > 100 µM | [14] > 100 µM | [15] > 100 µM | [16] > 100 µM | [17] > 100 µM | [18] > 100 µM | [19] 8.41 µM

O=C1OC(c2ccc([N+](=O)[O-])cc2)=N/C1=C\c1ccc(Cl)cc1
inactive: [1] > 100 µM | [2] > 100 µM | [3] > 100 µM | [4] > 100 µM | [5] > 100 µM | [6] > 100 µM | [7] > 100 µM | [8] > 100 µM | [9] > 100 µM | [10] > 100 µM | [11] > 100 µM | [12] > 100 µM | [13] > 100 µM | [14] 85.1 µM | [15] > 100 µM | [16] > 100 µM | [17] > 100 µM | [18] > 100 µM

c1ccc2c(c1)CCN1CCc3c([nH]c4ccccc34)C21 (configuration not stated)
inactive: [1] 31.3 µM | [2] 31.5 µM | [3] 21.4 µM | [4] 40.6 µM | [5] 28.2 µM | [6] 24.2 µM | [7] 13.7 µM | [8] 63.7 µM | [9] 35.3 µM | [10] 18.1 µM | [11] 38.7 µM | [12] 34 µM | [13] 35.2 µM | [14] 22.4 µM | [15] 36.2 µM | [16] 32.5 µM | [17] 42 µM | [18] 31.6 µM | [19] 28.6 µM
